Experimental data published in patent US7598377B2, “Inhibition of phosphoinositide 3-kinase β” (AstraZeneca AB, priority 2002, dated 2009).
pIC50: −log10 of the molar value.

What was measured:
Assay type in all cases: biochemical
P110 δ = molecular target: T1, P110 δ (Homo sapiens, UniProt O00329); experiment: Isoform selective in vitro PI3K enzyme assay (Example 13), δ from THP-1 cells; details: read-out: P110 δ IC50s
T1 construct: The δ isoform was immunoprecipitated from THP-1 cells; endogenous in cells; host or cells: THP-1 cells (immunoprecipitated with antibody sc-7176)
T1 sequence (O00329 whole entry, canonical isoform): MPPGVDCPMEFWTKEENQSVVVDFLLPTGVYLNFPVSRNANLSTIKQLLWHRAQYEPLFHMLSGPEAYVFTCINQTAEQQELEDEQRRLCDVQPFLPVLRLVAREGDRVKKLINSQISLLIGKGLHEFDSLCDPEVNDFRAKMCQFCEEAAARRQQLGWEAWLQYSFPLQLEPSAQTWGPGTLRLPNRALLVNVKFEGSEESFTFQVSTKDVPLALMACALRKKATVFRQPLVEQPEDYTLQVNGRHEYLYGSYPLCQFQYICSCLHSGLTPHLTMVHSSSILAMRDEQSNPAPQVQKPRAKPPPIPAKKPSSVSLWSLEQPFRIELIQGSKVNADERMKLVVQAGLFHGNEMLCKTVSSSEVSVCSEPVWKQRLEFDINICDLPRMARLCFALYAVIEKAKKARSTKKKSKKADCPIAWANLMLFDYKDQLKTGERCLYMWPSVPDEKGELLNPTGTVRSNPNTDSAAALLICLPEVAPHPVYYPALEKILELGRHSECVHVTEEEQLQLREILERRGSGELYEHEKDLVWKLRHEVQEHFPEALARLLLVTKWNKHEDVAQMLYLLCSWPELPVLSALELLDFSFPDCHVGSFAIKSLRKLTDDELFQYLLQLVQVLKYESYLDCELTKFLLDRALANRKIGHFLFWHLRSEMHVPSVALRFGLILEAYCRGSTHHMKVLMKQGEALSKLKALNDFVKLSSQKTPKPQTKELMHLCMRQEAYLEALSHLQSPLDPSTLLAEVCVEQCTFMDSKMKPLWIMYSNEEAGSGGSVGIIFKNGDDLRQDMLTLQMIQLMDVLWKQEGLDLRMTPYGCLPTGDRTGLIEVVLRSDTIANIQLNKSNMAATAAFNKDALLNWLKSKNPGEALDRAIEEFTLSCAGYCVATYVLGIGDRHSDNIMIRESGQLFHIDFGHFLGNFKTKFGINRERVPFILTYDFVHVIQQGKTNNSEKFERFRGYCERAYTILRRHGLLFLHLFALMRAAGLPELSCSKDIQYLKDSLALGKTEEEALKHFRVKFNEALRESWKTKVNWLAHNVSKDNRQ
T1 sequence (P27986 whole entry partner, canonical isoform): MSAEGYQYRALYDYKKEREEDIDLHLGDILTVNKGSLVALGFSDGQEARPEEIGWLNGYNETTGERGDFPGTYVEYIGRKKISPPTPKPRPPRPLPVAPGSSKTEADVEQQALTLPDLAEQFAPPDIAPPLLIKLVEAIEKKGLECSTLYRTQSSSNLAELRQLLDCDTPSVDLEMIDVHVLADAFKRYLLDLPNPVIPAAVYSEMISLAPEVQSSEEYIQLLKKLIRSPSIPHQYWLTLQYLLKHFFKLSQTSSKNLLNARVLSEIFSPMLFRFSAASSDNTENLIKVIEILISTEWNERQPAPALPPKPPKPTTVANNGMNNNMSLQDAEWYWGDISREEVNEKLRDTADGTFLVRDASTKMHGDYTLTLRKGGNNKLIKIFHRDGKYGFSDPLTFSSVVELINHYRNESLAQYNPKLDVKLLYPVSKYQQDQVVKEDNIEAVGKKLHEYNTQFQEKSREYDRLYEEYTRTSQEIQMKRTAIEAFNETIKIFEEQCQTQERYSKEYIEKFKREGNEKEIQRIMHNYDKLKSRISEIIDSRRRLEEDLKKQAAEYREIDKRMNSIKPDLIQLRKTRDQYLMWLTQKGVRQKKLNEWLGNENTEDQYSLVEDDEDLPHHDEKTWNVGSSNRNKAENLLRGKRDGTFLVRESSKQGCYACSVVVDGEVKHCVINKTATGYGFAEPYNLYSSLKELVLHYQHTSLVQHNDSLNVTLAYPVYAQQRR
Protocol: In vitro enzyme assays were conducted as a primary screen to determine drug candidate isoform affinity and specificity. […] The γ isoform was produced as a recombinant protein in the Kinacia laboratories. […] Standard phosphorylation assays using phosphatidylinositol and ^32P were used to measure the enzyme activity in the immunoprecipates in the presence or absence of an inhibitor. Enzyme activity was determined over a range of inhibitor concentrations to establish an IC50 value.

P110 γ = molecular target: T2, P110 γ (Homo sapiens, UniProt P48736); experiment: Isoform selective in vitro PI3K enzyme assay (Example 13), γ recombinant; details: read-out: P110 γ IC50s
T2 construct: made in house
T2 sequence (P48736 whole entry, species assumed, canonical isoform): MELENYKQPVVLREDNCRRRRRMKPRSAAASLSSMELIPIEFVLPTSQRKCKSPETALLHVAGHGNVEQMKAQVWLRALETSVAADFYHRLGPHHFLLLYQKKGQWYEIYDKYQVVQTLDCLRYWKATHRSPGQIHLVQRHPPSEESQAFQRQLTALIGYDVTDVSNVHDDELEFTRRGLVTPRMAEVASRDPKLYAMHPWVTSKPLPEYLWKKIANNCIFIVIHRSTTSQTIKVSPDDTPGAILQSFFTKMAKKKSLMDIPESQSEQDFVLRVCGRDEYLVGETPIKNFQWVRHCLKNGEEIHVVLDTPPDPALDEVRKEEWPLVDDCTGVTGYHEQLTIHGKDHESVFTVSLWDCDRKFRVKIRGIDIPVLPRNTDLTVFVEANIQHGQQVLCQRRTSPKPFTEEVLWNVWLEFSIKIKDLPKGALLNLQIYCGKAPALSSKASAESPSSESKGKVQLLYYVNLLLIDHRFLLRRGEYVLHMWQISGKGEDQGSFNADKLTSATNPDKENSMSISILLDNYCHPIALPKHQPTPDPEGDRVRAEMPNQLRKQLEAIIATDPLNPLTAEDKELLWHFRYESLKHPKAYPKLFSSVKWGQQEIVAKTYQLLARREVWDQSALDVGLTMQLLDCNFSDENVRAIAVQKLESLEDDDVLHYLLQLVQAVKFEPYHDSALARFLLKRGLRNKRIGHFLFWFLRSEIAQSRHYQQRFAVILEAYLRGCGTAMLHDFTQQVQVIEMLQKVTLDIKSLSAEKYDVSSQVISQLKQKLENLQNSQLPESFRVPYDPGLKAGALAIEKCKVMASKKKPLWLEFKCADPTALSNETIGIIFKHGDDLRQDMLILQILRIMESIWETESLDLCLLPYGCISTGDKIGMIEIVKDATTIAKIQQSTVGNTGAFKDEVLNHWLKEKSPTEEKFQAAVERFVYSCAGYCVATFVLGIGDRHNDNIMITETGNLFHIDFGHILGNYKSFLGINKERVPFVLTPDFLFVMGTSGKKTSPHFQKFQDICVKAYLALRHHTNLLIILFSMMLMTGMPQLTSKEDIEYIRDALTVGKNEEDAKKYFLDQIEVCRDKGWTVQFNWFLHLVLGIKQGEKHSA
Protocol: In vitro enzyme assays were conducted as a primary screen to determine drug candidate isoform affinity and specificity. The α and β isoforms of the PI3K were immunoprecipitated from a platelet lysate, using an antibodies obtained from Santa Cruz Biotechnology, that recognized specific regions of p110α (sc-7174) and β (sc-603) isoforms. The γ isoform was produced as a recombinant protein in the Kinacia laboratories. […] Standard phosphorylation assays using phosphatidylinositol and ^32P were used to measure the enzyme activity in the immunoprecipates in the presence or absence of an inhibitor. Enzyme activity was determined over a range of inhibitor concentrations to establish an IC50 value.

[1] = tested on: PI 3-kinase immunoprecipitated from human platelets (p85/110 form); experiment: In vitro PI 3-kinase assay (Example 8), Platelet IP (p85); details: read-out: Platelet IP (p85) IC50s
Protocol: The effect of pyridine-substituted compounds on PI 3-kinase activity was determined using an in vitro PI 3-kinase assay. This assay was performed using PI 3-kinase immunoprecipitated from human platelets as the enzyme and PI as the substrate. The PI 3-kinase activity was quantitated by measuring the enzymatic incorporation of [^32P] into PI, forming PI([^32P]-3)P, as previously described (Susa et al., 1992, The Journal of Biological Chemistry 267(32):22951-22956.
Washed human platelets were lysed in Triton X-100 lysis buffer (10 mM Tris, pH 7.4, 1% Triton X-100, 2 mM EDTA, 1 mM PMSF) for 30 minutes. The Triton X-100 insoluble fraction was removed by centrifugation of the cell lysates at 15,000 g for 10 minutes. PI 3-kinase was immunoprecipitated by mixing 500 μg of the cell lysate with 1 μg of a rabbit anti-rat antibody against the p85/110 form of PI 3-kinase and 30 μl of 50% Protein A-sepharose beads for 2 hours at 4° C. The Protein A-sepharose-bound PI 3-kinase was isolated by pelleting the beads at 15,000 g for 5 seconds, and washing three times with ice-cold Triton X-100 lysis buffer followed by four washes with PI 3-kinase assay buffer (20 mM HEPES, pH 7.4, 1 mM EGTA, 5 mM MgCl2).
PI stored in CHCl3 was dried under N2, resuspended in the lipid buffer (50 mM HEPES, pH 7.2, 1 mM EDTA) at a final concentration of 330 μg/ml, and sonicated for 6 minutes on ice. PI([^32P]-3)P was generated by mixing the immunoprecipitated PI 3-kinase for 20 minutes with 40 μl of the PI, 10 μl of ATP (1 mM) and ^32P-r-ATP (0.5 μCi, 1 μCi/nmol), 10 μl of 10× kinase buffer, in a final assay volume of 100 μl adjusted with H2O. TGX-was preincubated with the PI 3-kinase for 5 minutes prior to the addition of ATP. The assay was terminated with 100 μl of 1 N HCl, and the PI([^32P]-3)P product extracted with 200 μl chloroform:methanol (1:1) and 500 μl 2 M KCl. The PI([^32P]-3)P in the chloroform phase was resolved by thin layer chromatography using a solvent system containing CHCl3:MeOH:HAC:H2O (43:38:5:7) (v:v:v:v), and visualized by autoradiography. The PI([^32P]-3)P spots were then scraped off from the TLC plates, deacylated with 1 ml methylamine:butanol:methanol (42:9:47) (v:v:v) for 4 hours at 53° C., and quantitated using a liquid scintillation counter (LKB 1209 RackBETA).

| Compound | pIC50 (P110 δ) | pIC50 (P110 γ) | pIC50 [1] |
| --- | --- | --- | --- |
| 6-methyl-8-(2-acetamido)phenylaminomethyl-2-(4-pyridinyl)-4H-benzopyran-1-one [KN326] | 6.00 | 5.30 | 6.30 |
| 8-Naphthyl-2-(4-pyridinyl)-4(1H)-quinolinone [KN350] |  |  | 6.30 |
| Cc1cc(C(C)Nc2ccc(F)cc2C)c2oc(-c3ccncc3)cc(=O)c2c1 (stereo not drawn) [KN303, 8-1-(4-fluoro-2-methylphenylamino)ethyl-6-methyl-2-(4-pyridinyl)-4H-1-benzopyran-4-one] | 6.30 | 5.82 | 8.00 |
| Cc1cc(C(C)Nc2cccc(C)n2)c2oc(-c3ccncc3)cc(=O)c2c1 (stereo not drawn) [KN310, 8-1-(6-methylpyridin-2-ylamino)ethyl-6-methyl-2-(4-pyridinyl)-4H-1-benzopyran-4-one] | 6.00 | 5.12 | 7.00 |
| Cc1cc(CNc2ccccc2)c2oc(-c3ccncc3)cc(=O)c2c1 [KN312, 6-methyl-8-phenylaminomethyl-2-(4-pyridinyl)-4H-benzopyran-1-one] |  |  | 7.30 |
| Cc1cc(COc2ccccc2)c2oc(-c3ccncc3)cc(=O)c2c1 [KN313, 6-methyl-8-phenoxymethyl-2-(4-pyridinyl)-4H-benzopyran-1-one] | 5.30 |  | 7.00 |
| Cc1cc(CNc2ccccn2)c2oc(-c3ccncc3)cc(=O)c2c1 [KN315, 6-methyl-8-(2-pyridinyl)aminomethyl-2-(4-pyridinyl)-4H-benzopyran-1-one] | 5.30 | 5.30 | < 7.00 |
| O=c1cc(-c2ccncc2)nc2c(NCCc3ccccc3)cccn12 [KN316, 9-(2-phenethyl)amino-2-(4-pyridinyl)-4H-Pyrido[1,2-a]pyrimidin-4-one] | 6.00 |  | 6.00 |
| Cc1cc(C(C)Oc2ccccc2)c2oc(-c3ccncc3)cc(=O)c2c1 (stereo not drawn) [KN317, 6-methyl-8-1-(phenoxy)ethyl-2-(4-pyridinyl)-4H-benzopyran-1-one] | 5.30 |  | < 7.00 |
| O=c1cc(-c2ccncc2)[nH]c2c(Oc3ccccc3)cccc12 [KN319, 8-phenoxy-2-(4-pyridinyl)-4-(1H)-quinolinone] | 6.52 | 4.70 | 6.30 |
| Cc1cc(C(C)Nc2cccc(C(F)(F)F)c2)c2oc(-c3ccncc3)cc(=O)c2c1 (stereo not drawn) [KN322, 8-1-(3-trifluoromethylphenylamino)ethyl-6-methyl-2-(4-pyridinyl)-4H-1-benzopyran-4-one] | 6.00 |  | 6.00 |
| Cc1cc(C(C)n2c(C(F)(F)F)nc3ccccc32)c2oc(-c3ccncc3)cc(=O)c2c1 (stereo not drawn) [KN328, 6-methyl-8-1-(2-trifluoromethyl-benzimidazol-1-yl)-ethyl-2-(4-pyridinyl)-4H-benzopyran-1-one] |  |  | 7.30 |
| O=c1cc(-c2ccncc2)oc2c(OCc3ccccc3)cccc12 [KN335, 8-Benzyloxy-2-(4-pyridinyl)-4H-benzopyran-1-one] | 6.00 |  | 6.00 |
| O=c1cc(-c2ccncc2)oc2c(NCc3ccccc3)cccc12 [KN336] | 6.70 | 5.00 | 6.00 |
| Cc1cc(F)ccc1Oc1cccc2c(=O)cc(-c3ccncc3)[nH]c12 [KN337, 8-(4-Fluoro-2-methylphenoxy)-2-(4-pyridinyl)-4(1H)-quinolinone] | 6.70 | < 5.00 | 6.70 |
| Cc1cc(C(C)Nc2ccccc2)c2oc(-c3cc(C)nc(Cl)c3)cc(=O)c2c1 (stereo not drawn) [KN340, 8-1-(phenylamino)ethyl-6-methyl-2-(2-chloro-6-methyl-4-pyridinyl)-4H-1-benzopyran-4-one] | < 5.00 | < 5.00 |  |
| O=c1cc(-c2ccncc2)oc2c(Nc3ccccc3)cccc12 [KN341] | 7.30 | 5.30 | 6.30 |
| O=c1cc(-c2ccncc2)oc2cc(OCc3ccccc3)ccc12 [KN342, 7-Benzyloxy-2-(4-pyridinyl)-4H-benzopyran-1-one] | < 5.00 | < 5.00 |  |
| COc1cccc2c(=O)cc(-c3ccncc3)[nH]c12 [KN344, 8-methoxy-2-(4-pyridinyl)-4(1H)-quinolinone] |  | < 5.00 | 5.30 |
| O=c1cc(-c2ccncc2)[nH]c2c(-c3ccccc3)cccc12 [KN345, 8-phenyl-2-(4-pyridinyl)-4(1H)-quinoline] |  | < 5.00 | 5.30 |
| O=c1cc(-c2ccncc2)[nH]c2c(Cc3ccccc3)cccc12 [KN346, 8-Benzyl-2-(4-pyridinyl)-4(1H)-quinolinone] | 5.00 | < 5.00 | < 5.00 |
| Cc1cccn2c(=O)cc(-c3ccncc3)nc12 [KN347, 9-methyl-2-(4-pyridinyl)-4H-Pyrido[1,2-a]pyrimidin-4-one] | < 5.00 | < 5.00 | < 5.00 |
| O=c1cc(-c2ccncc2)nc2c(Cc3ccccc3)cccn12 [KN349, 9-Benzyl-2-(4-pyridinyl)-4H-Pyrido[1,2-a]pyrimidin-4-one] | 5.70 | < 5.00 | 6.30 |
| O=c1cc(-c2ccncc2)oc2c(Nc3cccc(F)c3)cccc12 [KN351, 8-(3-Fluorophenylamino)-2-(4-pyridinyl)-4H-benzopyran-1-one] |  |  | 6.30 |
| Cc1cc(-c2ccccc2)c2oc(-c3ccncc3)cc(=O)c2c1 [TGX258, 8-Phenyl-6-methyl-2-(4-pyridinyl)-4H-benzopyran-1-one] | < 5.00 | < 4.70 |  |
